We go through one compound from ChEMBL document CHEMBL5523725, “Fragment-Based Anti-inflammatory Agent Design and Target Identification: Discovery of AF-45 as an IRAK4 Inhibitor to Treat Ulcerative Colitis and Acute Lung Injury” (J Med Chem, 2024).

The source made the active and inactive calls. The calls are words filed in the database; no cut-off is given here.

The nature of data set [1]: Stability of compound in simulated intestinal fluid at 10 mg/ml incubated for 8 hrs and measured every 2 hrs hy HPLC analysis. It is filed as ADME. The following applies: simulated gi fluid.
The target in data set [2] is T1, Inhibitor of nuclear factor kappa-B kinase subunit beta (Homo sapiens) (UniProt O14920).
T1 sequence (whole entry): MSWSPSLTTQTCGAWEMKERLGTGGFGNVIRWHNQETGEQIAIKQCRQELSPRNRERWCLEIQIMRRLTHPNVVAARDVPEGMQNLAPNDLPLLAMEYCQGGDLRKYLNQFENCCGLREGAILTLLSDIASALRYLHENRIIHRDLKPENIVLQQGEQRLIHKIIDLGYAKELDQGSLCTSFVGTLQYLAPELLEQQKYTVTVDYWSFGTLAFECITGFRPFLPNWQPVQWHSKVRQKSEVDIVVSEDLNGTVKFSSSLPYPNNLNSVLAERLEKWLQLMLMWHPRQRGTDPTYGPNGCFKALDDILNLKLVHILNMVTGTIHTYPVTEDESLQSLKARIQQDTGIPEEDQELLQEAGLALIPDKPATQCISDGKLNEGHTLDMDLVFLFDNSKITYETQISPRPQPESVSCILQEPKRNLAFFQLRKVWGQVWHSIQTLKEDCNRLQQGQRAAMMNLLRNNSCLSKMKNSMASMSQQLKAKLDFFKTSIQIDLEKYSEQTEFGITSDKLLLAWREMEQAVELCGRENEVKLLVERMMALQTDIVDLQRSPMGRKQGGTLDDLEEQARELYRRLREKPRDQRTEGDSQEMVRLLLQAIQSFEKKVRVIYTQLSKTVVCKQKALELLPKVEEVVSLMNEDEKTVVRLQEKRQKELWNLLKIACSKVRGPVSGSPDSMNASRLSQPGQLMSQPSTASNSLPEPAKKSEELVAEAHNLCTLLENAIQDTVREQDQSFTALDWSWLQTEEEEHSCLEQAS
Briefly: Inhibition of IKKbeta (unknown origin) at 10 uM relative to control.

Data set [3] deals with Mus musculus. Briefly: Antiinflammatory activity in LPS induced C57BL/6 mouse model of acute lung injury assessed as reduction in over activation of spleen at 20 to 40 mg/kg, ip preadministered for 30 mins followed by LPS administration and measured after 6 hrs by F4/80 labeling based immunohistochemical analysis. Type of data set: functional, organism-based. The note with it: dose 20-40 mg/kg, time 6.5 hrs.

The nature of data set [4]: Clearance in male Sprague-Dawley rat at 1 mg/kg, iv administered via tail vein and measured upto 24 hrs. It is filed as ADME, organism-based. The following applies: in vivo.
A further data set has as its system THP-1. The data set can be described thus: cells. The note with it: Homo sapiens.
Data set [5] can be described thus: Stability of compound in simulated gastric fluid at 10 mg/ml incubated for 8 hrs and measured every 2 hrs hy HPLC analysis. Type of data set: ADME. The following applies: simulated gi fluid.
Data set [6] deals with Mus musculus. The data set can be described thus: Anti-colitis activity in male C57BL/6 mouse model of DSS-induced ulcerative colitis assessed as colon length at 10 mg/kg, po administered for 11 days with subsequent administration of DSS for 8 days (reference value: 5.2 cm). The following applies: time 11 day. It is filed as functional.
In data set [7] the target is Cyclin-dependent kinase 16 (Homo sapiens) (UniProt Q00536). Briefly: Inhibition of human PCTAIREI assessed as residual activity at 10 uM by Eurofins kinase profiler method relative to control.
Chain of Cyclin-dependent kinase 16 (Homo sapiens) (Q00536 whole entry): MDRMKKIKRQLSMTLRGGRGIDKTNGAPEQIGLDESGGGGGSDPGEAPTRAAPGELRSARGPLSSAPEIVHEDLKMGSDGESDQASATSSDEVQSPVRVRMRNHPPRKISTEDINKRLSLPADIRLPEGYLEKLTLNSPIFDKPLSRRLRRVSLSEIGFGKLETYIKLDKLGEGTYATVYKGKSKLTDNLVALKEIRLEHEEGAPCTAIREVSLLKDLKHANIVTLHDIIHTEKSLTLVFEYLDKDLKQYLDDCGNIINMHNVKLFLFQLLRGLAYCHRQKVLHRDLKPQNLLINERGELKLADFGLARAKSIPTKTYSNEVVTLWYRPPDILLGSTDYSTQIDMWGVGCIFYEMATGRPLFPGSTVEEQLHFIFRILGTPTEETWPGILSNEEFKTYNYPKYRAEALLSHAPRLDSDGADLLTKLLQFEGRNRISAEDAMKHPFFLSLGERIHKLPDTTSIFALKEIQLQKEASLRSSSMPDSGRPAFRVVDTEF
The test system of data set [8] is Mus musculus. Briefly: Antiinflammatory activity in LPS induced C57BL/6 mouse model of acute lung injury assessed as inhibition of IL-6 release in serum at 20 to 40 mg/kg, ip preadministered for 30 mins followed by LPS administration and measured after 6 hrs by ELISA. Type of data set: functional, organism-based. The following applies: dose 20-40 mg/kg, time 6.5 hrs.

Data set [9] is described as follows: Stability of compound in enzyme free simulated intestinal fluid at 10 mg/ml incubated for 8 hrs and measured every 2 hrs hy HPLC analysis. It is filed as ADME. The note with it: simulated gi fluid.
Data set [10] relates to Mus musculus. Briefly: Antiinflammatory activity in male C57BL/6 mouse model of DSS-induced ulcerative colitis assessed as increase in body weight at 20 mg/kg, po administered for 11 days with subsequent administration of DSS for 8 days and measured on day 11. Type of data set: functional, organism-based. The note with it: time 11.0 day.
For data set [11], the system named is Mus musculus. Briefly: Antiinflammatory activity in LPS induced C57BL/6 mouse model of acute lung injury assessed as inhibition of TNFalpha release in serum at 20 to 40 mg/kg, ip preadministered for 30 mins followed by LPS administration and measured after 6 hrs by ELISA. Type of data set: functional, organism-based. The note with it: dose 20-40 mg/kg, time 6.5 hrs. In general terms: ELISA stands for enzyme-linked immunosorbent assay.

Data set [12] concerns the target Interleukin-1 receptor-associated kinase 1 (Homo sapiens, UniProt P51617). Briefly: Inhibition of IRAK1 (unknown origin).

Chain of Interleukin-1 receptor-associated kinase 1 (P51617 whole entry): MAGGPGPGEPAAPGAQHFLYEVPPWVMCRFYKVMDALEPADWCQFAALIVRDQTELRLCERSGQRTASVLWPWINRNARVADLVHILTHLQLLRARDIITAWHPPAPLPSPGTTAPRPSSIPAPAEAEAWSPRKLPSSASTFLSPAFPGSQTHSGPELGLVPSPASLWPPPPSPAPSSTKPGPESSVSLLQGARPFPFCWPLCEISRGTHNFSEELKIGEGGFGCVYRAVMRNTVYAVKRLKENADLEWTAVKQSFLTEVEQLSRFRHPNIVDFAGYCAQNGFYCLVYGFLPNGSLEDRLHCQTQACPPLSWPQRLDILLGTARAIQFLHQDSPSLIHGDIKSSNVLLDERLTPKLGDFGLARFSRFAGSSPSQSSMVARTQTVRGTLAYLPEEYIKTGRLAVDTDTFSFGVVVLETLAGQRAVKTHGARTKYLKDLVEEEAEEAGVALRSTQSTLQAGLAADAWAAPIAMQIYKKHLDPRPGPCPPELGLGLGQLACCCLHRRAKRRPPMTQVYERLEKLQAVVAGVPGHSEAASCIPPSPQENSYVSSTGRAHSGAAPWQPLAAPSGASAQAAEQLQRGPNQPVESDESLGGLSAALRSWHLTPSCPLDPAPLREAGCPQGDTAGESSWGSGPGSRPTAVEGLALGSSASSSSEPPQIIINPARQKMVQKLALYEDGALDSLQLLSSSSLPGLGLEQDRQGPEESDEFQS
Description for THP-1: Antiinflammatory activity in LPS-induced human THP-1 cells assessed as inhibition of IL-6 release pretreated for 30 mins followed by LPS stimulation and measured after 24 hrs by ELISA

One may read the inhibition as the drop in the measured response relative to a control, in per cent. By clearance is commonly meant the volume of plasma or blood freed of the substance per unit of time. Broadly, the IC50 is the midpoint of a concentration-inhibition curve. Consider `COc1cc2c(O[C@H]3CC[C@@H](N)CC3)ncnc2cc1OCc1ccccc1`, for which the Stability result in [1], in [5] and in [9] was “Stable” throughout. Further, the inhibition in data set [2] was -1.64%. The result in the data set on Mus musculus [3], in the data set on Mus musculus [8], with Mus musculus [10] and in the data set with Mus musculus [11] was Active. The clearance in data set [4] is 3.83 mL/min/kg. The figures for the IC50 (in the data set on THP-1; in data set [12]) were 0.53 µM and 1.77 µM, respectively. For the same compound, the values for the Activity (with Mus musculus [6]; in data set [7]) were 5.9 cm and 70%, respectively.
